What all share (test): inhibition of tumour cell growth, NCI panel, 48 h
The test system of assay [1] is BT-549.
For assay [2], the system named is EKVX.
In assay [3] the test system is HOP-62.
In assay [4] the test system is HT-29.
Assay [5] deals with LOX IMVI.
Assay [6] has as its system Malme-3M.
The subject of assay [7] is NCI-H226.
Assay [8] has as its system OVCAR-3.
The subject of assay [9] is OVCAR-4.
For assay [10], the system named is RPMI-8226.
The subject of assay [11] is RXF 393.
Assay [12] concerns SK-MEL-5.
Assay [13] relates to SR.
For assay [14], the system named is SW-620.
Assay [15] deals with UACC-62.
For assay [16], the system named is UO-31.
The subject of assay [17] is MDA-MB-435.
Assay [18] has as its system NCI-H522.
Assay [19] deals with HOP-92.

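Assay format: 96-well plates, 48-hour exposure. GI50 = concentration required for 50% inhibition of growth.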 Active and inactive are the calls of the source. No stated cut-off is given here; in the data, active = GI50 up to about 1.1 µM and inactive = higher. *1 amine or outer side, *2 acyl side, *3 side chain or, on linkers, in order; H or OH if unused. Where a SMILES comes first, the peptide text is derived from it. [ ]: non-standard residue; d: D form. The star is where a group is joined. ξ: configuration not given here. X26 = O=C([C@H]1CCC[C@H]1N[*:1])[*:2]; ξW = NC(Cc1c[nH]c2ccccc12)C(=O)O; ξF = NC(Cc1ccccc1)C(=O)O; Boc = CC(C)(C)OC(=O)*; ξK = NCCCCC(N)C(=O)O; ξT = CC(O)C(N)C(=O)O; tBu = CC(C)(C)*

In the case of `O=C1NN=C(O)C2C3c4ccccc4C(c4ccccc43)C12` (stereo not given), the GI50 in assay [1], in assay [2], in assay [3], in [4], in assay [5] and in assay [6] was > 100 µM (inactive) throughout. For the same molecule, the GI50 in assay [7], in assay [8], in [9], in assay [10], in assay [11] and in [12] was > 100 µM (inactive) each time. Besides, the GI50 in [13], in assay [14], in [15] and in assay [16] was > 100 µM (inactive) in each case.

As to `CCOC(=O)C(=[N+]=[N-])C(=O)CSC#N`, the GI50 was 86.9 µM (inactive) in [1]; > 100 µM (inactive) in [2]; > 100 µM (inactive) in assay [3]; 39.3 µM (inactive) in [4]; 21.7 µM (inactive) in assay [5]; 22.6 µM (inactive) in assay [17]. In addition, the GI50 in assay [6] is 55 µM (inactive); in assay [7] it was 40.6 µM (inactive); in assay [18], 24.4 µM (inactive); in assay [9] it was 40.6 µM (inactive); in assay [11], > 100 µM (inactive); in [12] it was 35.5 µM (inactive). Also, the values for the GI50 in [14], in assay [15] and in assay [16] were 57.3 µM (inactive), 69.5 µM (inactive) and 31.2 µM (inactive), respectively.

As for `CCC1=C(c2ccc(OC)cc2)CC[C@]2(CCNC2=O)[C@@H]1C`, the GI50 in assay [2] is 28.1 µM (inactive); in assay [3] it was 51.2 µM (inactive); in [19] it was 40.7 µM (inactive); in assay [4], 23.2 µM (inactive); in assay [5], 25.1 µM (inactive); in [17], 19.6 µM (inactive). Also, the GI50 in assay [6] is 25.8 µM (inactive); in assay [7] it was 37.9 µM (inactive); in assay [18], 18.3 µM (inactive); in [8], 22.7 µM (inactive); in assay [9], 22 µM (inactive); in assay [10] it was 16.3 µM (inactive). Besides, the GI50 in [11] was 55.2 µM (inactive); in assay [12], 16.8 µM (inactive); in assay [13], 24.2 µM (inactive); in assay [14], 44.2 µM (inactive); in assay [15], 24.4 µM (inactive); in [16], 21.4 µM (inactive).

On to `CCOC(=O)C1(C/C=C\CBr)CCCCCCCCCCC1=O` (stereo not given), for which the GI50 in assay [1] is 15.3 µM (inactive); in assay [2] it was 14.9 µM (inactive); in assay [3], 18.2 µM (inactive); in assay [4], 4.38 µM (inactive); in assay [5], 0.428 µM (active); in assay [17], 12 µM (inactive). Besides, the GI50 in assay [6] was 8.22 µM (inactive); in [7], 2.88 µM (inactive); in [18], 0.497 µM (active); in [8], 2.09 µM (inactive); in assay [9] it was 10.6 µM (inactive); in assay [10] it was 2.81 µM (inactive). Further, the GI50 in assay [11] is 11.2 µM (inactive); in [12], 12.8 µM (inactive); in assay [14], 13.5 µM (inactive); in [15] it was 11.5 µM (inactive); in assay [16] it was 2.9 µM (inactive).

Take `O=C(/C=C(\Nc1ccccc1O)c1ccccc1)C(=O)NC12CC3CC(CC(C3)C1)C2`: the GI50 in assay [2] was > 10 µM (inactive); in assay [3], > 10 µM (inactive); in assay [4], 2.41 µM (inactive); in assay [5] it was 9.14 µM (inactive); in assay [17], > 10 µM (inactive); in assay [6], > 10 µM (inactive). Moreover, the GI50 in assay [7] is > 10 µM (inactive); in assay [18] it was > 10 µM (inactive); in assay [8], > 10 µM (inactive); in assay [9], > 10 µM (inactive); in assay [10] it was 4.99 µM (inactive); in assay [11], > 10 µM (inactive). The GI50 was 7.03 µM (inactive) in [12], 5.33 µM (inactive) in assay [13], > 10 µM (inactive) in [14] and > 10 µM (inactive) in [16].

Consider `CC(=O)C(=C(I)I)c1ccccc1`, for which the GI50 is 25.7 µM (inactive) in assay [2]; 20.9 µM (inactive) in assay [3]; 37.2 µM (inactive) in assay [19]; 17.9 µM (inactive) in [4]; 18.1 µM (inactive) in [5]; 14.6 µM (inactive) in assay [17]. For the same molecule, the GI50 in assay [6] is 12.3 µM (inactive); in assay [7], 11.5 µM (inactive); in [18], 12.7 µM (inactive); in assay [8], 16.7 µM (inactive); in [9] it was 16.1 µM (inactive); in assay [11] it was 20 µM (inactive). Further, the GI50 is 15.1 µM (inactive) in assay [12]; 13.1 µM (inactive) in [13]; 18.3 µM (inactive) in [14]; 25.5 µM (inactive) in assay [15]; 19.2 µM (inactive) in assay [16].

For `Cc1ccc2c(c1)CN1c3ccc(C)cc3CN2C1c1ccccc1O`, the GI50 in assay [2] was 7.19 µM (inactive); in [3], 85.9 µM (inactive); in assay [19], 15.2 µM (inactive); in assay [4], 42 µM (inactive); in assay [5], 58.5 µM (inactive); in assay [6], > 100 µM (inactive). The GI50 in [7] is 49.5 µM (inactive); in assay [18], 65.6 µM (inactive); in assay [8], 21.5 µM (inactive); in [9], 57 µM (inactive); in assay [10], 19.5 µM (inactive); in [11] it was 7.18 µM (inactive). For the same molecule, the GI50 is 13.7 µM (inactive) in assay [12]; 11.7 µM (inactive) in assay [13]; 61.9 µM (inactive) in [14]; 25.1 µM (inactive) in assay [15]; 24.9 µM (inactive) in assay [16].

As for `Cc1n[nH]c(=O)n1/N=C/c1cccc(Cl)c1`, the GI50 in assay [1] is 47.2 µM (inactive); in [2] it was 31 µM (inactive); in assay [3], 49.3 µM (inactive); in assay [4], > 100 µM (inactive); in [17], 94.4 µM (inactive); in assay [6], > 100 µM (inactive). Also, the GI50 was > 100 µM (inactive) in assay [7]; > 100 µM (inactive) in assay [8]; 76.9 µM (inactive) in [9]; > 100 µM (inactive) in assay [10]; 20.2 µM (inactive) in assay [11]; > 100 µM (inactive) in [14]. The GI50 in assay [15] and in assay [16] was > 100 µM (inactive) in each case.

`CC(=O)Oc1ccn2nc(C)c(Cc3c(C)nn4ccc(OC(C)=O)cc34)c2c1`: the GI50 in assay [2] was > 100 µM (inactive); in [3], 48 µM (inactive); in assay [19], > 100 µM (inactive); in assay [4], > 100 µM (inactive); in assay [5], 79.1 µM (inactive); in assay [17], 25.1 µM (inactive). For the same molecule, the GI50 in [6] was > 100 µM (inactive); in assay [7] it was > 100 µM (inactive); in [18] it was 33.2 µM (inactive); in [8] it was > 100 µM (inactive); in assay [9], > 100 µM (inactive); in assay [12], > 100 µM (inactive). Further, the GI50 in assay [13] was > 100 µM (inactive); in assay [14], > 100 µM (inactive); in [15], 98.2 µM (inactive).

Regarding `Oc1ccc(N=C2CCC(=C(c3ccccc3)c3ccc(Nc4ccc(O)cc4)cc3)CC2)cc1`, the GI50 in assay [19] was > 100 µM (inactive); in assay [4], 48.8 µM (inactive); in assay [5] it was 73.3 µM (inactive); in [17] it was 34.5 µM (inactive); in [7], > 100 µM (inactive); in assay [18] it was 47 µM (inactive). The GI50 was 86.5 µM (inactive) in [9]; 46.1 µM (inactive) in assay [10]; 58.6 µM (inactive) in [11]; > 100 µM (inactive) in assay [12]; 19.7 µM (inactive) in assay [13]; 58.1 µM (inactive) in assay [14]. Further, the GI50 in assay [15] was 55.8 µM (inactive); in [16] it was 57.4 µM (inactive).

With `COc1ccc(N/N=C/C2=CC(C)(C)C(C#N)(C#N)C(O)=C2C#N)cc1`, the GI50 in [2] was 66.5 µM (inactive); in assay [3], 43.6 µM (inactive); in assay [19] it was 17.1 µM (inactive); in [4] it was 43.1 µM (inactive); in assay [5] it was 31.4 µM (inactive); in [17], 65.3 µM (inactive). The GI50 in [6] was 29.4 µM (inactive); in [7] it was 77.8 µM (inactive); in assay [18] it was 37.7 µM (inactive); in assay [8], 21.6 µM (inactive); in assay [9], 50 µM (inactive); in [10] it was 35.6 µM (inactive). For the same molecule, the GI50 is 36.6 µM (inactive) in assay [11]; 69.7 µM (inactive) in assay [12]; 11.5 µM (inactive) in assay [13]; 40.9 µM (inactive) in assay [14]; 62.2 µM (inactive) in assay [15]; 20.5 µM (inactive) in assay [16].

Turning to `CC(OC(C)(C)C)C1NC(=O)C(CCCCNC(=O)OC(C)(C)C)NC(=O)C(Cc2c[nH]c3ccccc23)NC(=O)C(Cc2ccccc2)NC(=O)[C@H]2CCC[C@H]2NC(=O)C(Cc2ccccc2)NC1=O` (stereo not given in full) (cyclo([X26][ξF][ξW][ξK](Boc)[ξT](tBu)[ξF])), the GI50 in [2] was > 100 µM (inactive); in [3], > 100 µM (inactive); in assay [19], > 100 µM (inactive); in assay [4], 11.4 µM (inactive); in assay [5], 16.1 µM (inactive); in assay [17], 29.9 µM (inactive). Besides, the GI50 in [6] was > 100 µM (inactive); in [7], 39.2 µM (inactive); in [18], 61.7 µM (inactive); in assay [8] it was > 100 µM (inactive); in assay [9], > 100 µM (inactive); in [10], 8.71 µM (inactive). Further, the GI50 in [11] was > 100 µM (inactive); in [12], 3.13 µM (inactive); in assay [13] it was 72.3 µM (inactive); in assay [14] it was > 100 µM (inactive); in assay [15], 28.5 µM (inactive); in [16], > 100 µM (inactive).

Values taken from ChEMBL document CHEMBL1201862, “PubChem BioAssay data set” (2004).
